Tests used:
Assay type in all cases: cell-based
[1] = system: Escherichia coli (Ec) ATCC 8739; experiment: Challenge Test (artificial contamination) of cosmetic formula, E. coli; conditions: 2% compound in cosmetic formula; inoculation about 10^6 cfu/gram; 7 days contact at 22° C.±2° C. in darkness; <200 cfu = sensitivity threshold
Description: (§1) The antimicrobial efficacy of a compound of formula (I) was evaluated via the Challenge Test or artificial contamination method. The method of the challenge test consists of an artificial contamination of the sample with collection microbial strains (bacteria, yeasts and moulds) and evaluation of the number of revivable microorganisms seven days after the inoculation. […] [table] […] After 7 days of contact time between the microorganisms and the product at 22° C.±2° C. and in darkness, decimal dilutions are performed and the number of revivable microorganisms remaining in the product is counted.

[2] = system: Candida albicans (Ca) ATCC 10231; experiment: Challenge Test (artificial contamination) of cosmetic formula, C. albicans; conditions: 2% compound in cosmetic formula; inoculation about 10^6 cfu/gram; 7 days contact at 22° C.±2° C. in darkness; <200 cfu = sensitivity threshold
Description: as §1

[3] = system: Aspergillus niger (An) ATCC 6275; experiment: Challenge Test (artificial contamination) of cosmetic formula, A. niger; conditions: 2% compound in cosmetic formula; inoculation about 10^6 cfu/gram; 7 days contact at 22° C.±2° C. in darkness
Description: The antimicrobial efficacy of a compound of formula (I) was evaluated via the Challenge Test or artificial contamination method. The method of the challenge test consists of an artificial contamination of the sample with collection microbial strains (bacteria, yeasts and moulds) and evaluation of the number of revivable microorganisms seven days after the inoculation. […] [table] The gram-negative bacteria (Escherichia coli and Pseudomonas aeruginosa), gram-positive bacteria (Enterococcus faecalis), yeast (Candida albicans) and mould (Aspergillus niger) are seeded in the subculturing medium, respectively, the day before the inoculation for the bacteria and the yeast, and five days before the inoculation for the mould. for the mould, the spores are collected by washing the agar with 6 to 7 ml of harvesting solution and the suspension is recovered in a sterile tube or flask. After homogenizing the microbial suspension, 0.2 ml of inoculum is introduced into each pill bottle (the suspensions are used pure: between 1×10^8 and 3×10^8 cfu per ml) and the microbial suspension in the 20 g of product (=cosmetic formula) is homogenized thoroughly using a spatula. […] After 7 days of contact time between the microorganisms and the product at 22° C.±2° C. and in darkness, decimal dilutions are performed and the number of revivable microorganisms remaining in the product is counted.

[4] = system: Enterococcus faecalis (Ef) ATCC 33186; experiment: Challenge Test (artificial contamination) of cosmetic formula, E. faecalis; conditions: 2% compound in cosmetic formula; inoculation about 10^6 cfu/gram; 7 days contact at 22° C.±2° C. in darkness; <200 cfu = sensitivity threshold
Description: as §1

[5] = system: Pseudomonas aeruginosa (Pa) ATCC 19429; experiment: Challenge Test (artificial contamination) of cosmetic formula, P. aeruginosa; conditions: 2% compound in cosmetic formula; inoculation about 10^6 cfu/gram; 7 days contact at 22° C.±2° C. in darkness; <200 cfu = sensitivity threshold
Description: as §1

## CCOc1cc(CCC(C)=O)ccc1O [Compound]
[1]
  No. of cfu/gram of product at T7 days, E. coli: <200 cfu/gram of product
[2]
  No. of cfu/gram of product at T7 days, C. albicans: <200 cfu/gram of product
[3]
  No. of cfu/gram of product at T7 days, A. niger: 3.4 × 10^5 cfu/gram of product
[4]
  No. of cfu/gram of product at T7 days, E. faecalis: <200 cfu/gram of product
[5]
  No. of cfu/gram of product at T7 days, P. aeruginosa: <200 cfu/gram of product

Reference: US11306051B2, “Use of vanillin derivatives as a preservative, preservation method, compounds, and composition” (L'OREAL, priority 2009, dated 2022)
